The source of these data is patent US20110288116A1, “IAP INHIBITORS” (TETRALOGIC PHARMACEUITCAL CORPORATION, priority 2008, published 2011).

A value given as a limit tells only on which side of the number the result lay.

T2 sequence (P98170 241-356 limits assumed): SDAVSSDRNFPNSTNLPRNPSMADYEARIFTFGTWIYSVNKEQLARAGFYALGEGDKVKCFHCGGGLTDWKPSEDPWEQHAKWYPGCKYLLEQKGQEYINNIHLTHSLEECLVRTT

The target of one assay is T1, cIAP-1 BIR-3 (Homo sapiens, UniProt Q13490).
T1 construct: "cIAP-1 BIR-3"
T1 sequence (Q13490 266-343 limits assumed): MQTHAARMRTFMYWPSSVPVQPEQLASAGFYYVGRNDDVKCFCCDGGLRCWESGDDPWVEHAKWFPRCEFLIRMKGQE
Kind of assay: Fluorescence polarization binding to cIAP-1 BIR-3 (competition with AbuRPF-K(5-Fam)-NH2). As to conditions: cells marked (cIAP-1): cIAP-1 BIR-3; reported as range class. The protocol: (§1) The binding affinities of the compounds are reported as a Kd value. Briefly, various concentrations of test peptides were mixed with 5 nM of the fluorescently labeled peptide (i.e., a mutated N-terminal Smac peptide—AbuRPF-K(5-Fam)-NH2) and 40 nM of the BIR3 for 15 min at RT in […] of 0.1M Potassium Phosphate buffer, pH 7.5 containing […] bovine g-globulin. Following incubation, the polarization values (mP) were measured on a Victor2V (available from PerkinElmer Life Sciences) using a 485 nm excitation filter and a 520 nm emission filter. The reported Kd values are supplied as ranges (A=<0.1 μM, B=0.1 μM to C=>1 μM to 10 μM, D=>10 μM) and, unless otherwise indicated, are the Kd for XIAP BIR-3.
In the case of `CN[C@@H](C)C(=O)N[C@H](C(=O)N1CCC[C@H]1Cc1cn(C)c2ncccc12)C(C)(C)C` [X], the Kd is below 100 nM.
Same read-out and setting: for `CCN[C@@H](C)C(=O)N[C@H](C(=O)N1CC[C@@H](O)[C@H]1Cc1c[nH]c2ccccc12)[C@@H](C)O` [DD′] the value was below 100 nM; for `CCc1ccc2c(c1)[C@H](C[C@@H]1C[C@H](O)CN1C(=O)[C@@H](NC(=O)[C@H](C)NC)[C@@H](C)OC)CN2C(C)=O` [ZZZ], below 100 nM.
Still for that read-out and setting: the value for `CN[C@@H](C)C(=O)N[C@H](C(=O)N1CC[C@H](O)[C@H]1Cc1c(Cl)[nH]c2cc(F)ccc12)C1CCCCC1` [W′] was below 100 nM.
Still for that read-out and setting: for `CC[C@H](NC)C(=O)N[C@H](C(=O)N1CCC[C@H]1Cc1cn(C)c2ncccc12)C(C)(C)C` [V] the value was above 100 nM; for `CC[C@H](NC)C(=O)N[C@H](C(=O)N1CC[C@@H](O)[C@H]1Cc1c[nH]c2ccccc12)C1CCCCC1` [KK′], below 100 nM.
For the compound `CN[C@@H](C)C(=O)N[C@H](C(=O)N1CC[C@@H](O)[C@H]1Cc1c(-c2ccc(F)cc2)[nH]c2ccccc12)[C@@H](C)O` [EEE], the Kd was below 100 nM.
The same measure, in the same setting: for `CC[C@H](NC)C(=O)N[C@H](C(=O)N1CC[C@@H](O)[C@H]1Cc1c(-c2ccc(F)cc2)[nH]c2ccccc12)[C@@H](C)O` [DDD] the value was below 100 nM; for `CC[C@H](NC)C(=O)N[C@H](C(=O)N1CC[C@H](O)[C@H]1Cc1c(Cl)[nH]c2cc(F)ccc12)C(C)C` [Z′], below 100 nM; for `CN[C@H](C(=O)N[C@H](C(=O)N1CC[C@@H](O)[C@H]1Cc1c[nH]c2ccccc12)C(C)C)C1CC1` [TT′], above 100 nM.
On the same count and under the same terms, for `CCc1ccc2c(c1)[C@@H](C[C@@H]1C[C@H](O)CN1C(=O)[C@@H](NC(=O)[C@H](C)NC)C1CCCCC1)CN2C(C)=O` [BBBB] the value was above 100 nM; for `CCN[C@@H](C)C(=O)N[C@H](C(=O)N1CC[C@@H](O)[C@H]1Cc1c[nH]c2ccccc12)C1CC1` [SS′], above 100 nM; for `CN[C@@H](C)C(=O)N[C@H](C(=O)N1CC[C@@H](O)[C@H]1Cc1c[nH]c2ccccc12)C1CC1` [VV′], below 100 nM.
Take `CC[C@H](NC)C(=O)N[C@H](C(=O)N1CC[C@@H](O)[C@H]1Cc1c[nH]c2ccccc12)C(C)(C)C` [NN′]: the Kd is below 100 nM.
Same read-out and setting: for `CN[C@@H](C)C(=O)N[C@H](C(=O)N1CC[C@@H](O)[C@H]1Cc1c[nH]c2ccccc12)C(C)C` [XX′] the value was below 100 nM; for `CC[C@H](NC)C(=O)N[C@H](C(=O)N1CC[C@H](OC)[C@H]1Cc1c(Cl)[nH]c2cc(F)ccc12)C(C)C` [V′], above 100 nM; for `CN[C@@H](C)C(=O)N[C@H](C(=O)N1CC[C@@H](O)[C@H]1Cc1c[nH]c2ccccc12)C(C)(C)C` [PP′], below 100 nM.
Same read-out and setting: the value for `CCN[C@@H](C)C(=O)N[C@H](C(=O)N1CC[C@H](OC)[C@H]1Cc1c(Cl)[nH]c2cc(F)ccc12)C(C)C` [U′] was above 100 nM; that for `CN[C@@H](C)C(=O)N[C@H](C(=O)N1CC[C@H](O)[C@H]1Cc1c[nH]c2ncccc12)[C@@H](C)OC` [BB] was below 100 nM.
Still for that read-out and setting: for `CCN[C@@H](C)C(=O)N[C@H](C(=O)N1CC[C@H](O)[C@H]1Cc1c[nH]c2ncccc12)C(C)(C)C` [AA] the value was below 100 nM.
Turning to `CC[C@H](NC)C(=O)N[C@H](C(=O)N1CC[C@@H](O)[C@H]1Cc1c[nH]c2ccccc12)C(C)C` [UU′], the Kd was below 100 nM.
On the same count and under the same terms, for `CCN[C@@H](C)C(=O)N[C@H](C(=O)N1CC[C@@H](O)[C@H]1Cc1c(-c2ccc(F)cc2)[nH]c2ccccc12)[C@@H](C)O` [CCC] the value was below 100 nM; for `CCN[C@@H](C)C(=O)N[C@@H](COC)C(=O)N1CC[C@@H](O)[C@H]1Cc1c(-c2ccc(F)cc2)[nH]c2ccccc12` [FFF], above 100 nM.
Same read-out and setting: for `CCN[C@@H](C)C(=O)N[C@H](C(=O)N1CC[C@@H](O)[C@H]1Cc1c(-c2ccc(F)cc2)[nH]c2ccccc12)C(C)C` [ZZ′] the value was below 100 nM; for EEEE, above 100 nM; for `CN[C@@H](C)C(=O)N[C@H](C(=O)N1C[C@@H](O)C[C@H]1C[C@@H]1CN(C(C)=O)c2ccccc21)C1CCCCC1` [TTT], below 100 nM.
The same measure, in the same setting: for `CN[C@H](C(=O)N[C@H](C(=O)N1CC[C@@H](O)[C@H]1Cc1c[nH]c2ccccc12)C1CC1)C1CC1` [QQ′] the value was above 100 nM; for `CN[C@@H](C)C(=O)N[C@H](C(=O)N1CC[C@H](O)[C@H]1Cc1c(Cl)[nH]c2cc(F)ccc12)[C@@H](C)OC` [CC′, N-{1-[2-(2-Chloro-6-fluoro-1H-indol-3-ylmethyl)-3-hydroxy-pyrrolidine-1-carbonyl]-2-methoxy-propyl}-2-methylamino-propionamide], below 100 nM; for `CN[C@@H](C)C(=O)N[C@H](C(=O)N1C[C@@H](O)C[C@H]1C(=O)c1c[nH]c2cc(F)ccc12)C(C)(C)C` [PPP, N-{1-[2-(6-Fluoro-1H-indole-3-carbonyl)-4-hydroxy-pyrrolidine-1-carbonyl]-2,2-dimethyl-propyl}-2-methylamino-propionamide], below 100 nM.
As for `CCN[C@@H](C)C(=O)N[C@H](C(=O)N1CC[C@@H](O)[C@H]1Cc1c[nH]c2ccccc12)C1CCCCC1` [JJ′], the equilibrium dissociation constant (Kd) is below 100 nM.
The same measure, in the same setting: for `CN[C@@H](C)C(=O)N[C@H](C(=O)N1CC[C@H](O)[C@H]1Cc1c[nH]c2ncccc12)C(C)(C)C` [Z, N-{1-[3-Hydroxy-2-(1H-pyrrolo[2,3-b]pyridin-3-ylmethyl)-pyrrolidine-1-carbonyl]-2,2-dimethyl-propyl}-2-methylamino-propionamide] the value was below 100 nM.
Same read-out and setting: for `CCN[C@@H](C)C(=O)N[C@H](C(=O)N1CC[C@@H](O)[C@H]1Cc1c(-c2ccc(F)cc2)[nH]c2ccccc12)[C@@H](C)OC` [LLL] the value was below 100 nM; for `CCN[C@@H](C)C(=O)N[C@H](C(=O)N1CC[C@H](O)[C@H]1Cc1c[nH]c2ncccc12)C(C)C` [EE], below 100 nM; for `CCN[C@@H](C)C(=O)N[C@H](C(=O)N1C[C@@H](O)C[C@H]1C[C@H]1CN(C(C)=O)c2ccc(CC)cc21)C1CCCCC1` [CCCC], above 100 nM.
Still for that read-out and setting: the value for `CC[C@H](NC)C(=O)N[C@H](C(=O)N1CC[C@@H](O)[C@H]1Cc1c[nH]c2ccccc12)C1CC1` [RR′] was below 100 nM.
Regarding `CN[C@@H](C)C(=O)N[C@@H](COC)C(=O)N1CC[C@@H](O)[C@H]1Cc1c(-c2ccc(F)cc2)[nH]c2ccccc12` [HHH], the Kd was above 100 nM.
The same measure, in the same setting: the value for `CN[C@@H](C)C(=O)N[C@H](C(=O)N1C[C@@H](O)C[C@H]1C[C@H]1CN(C(C)=O)c2ccccc21)[C@@H](C)OC` [WWW] was above 100 nM.
The same measure, in the same setting: for `CN[C@@H](C)C(=O)N[C@H](C(=O)N1C[C@@H](O)C[C@H]1C(=O)c1c[nH]c2cc(F)ccc12)C(C)C` [QQQ] the value was below 100 nM; for `CN[C@H](C(=O)N[C@H](C(=O)N1CC[C@@H](O)[C@H]1Cc1c[nH]c2ccccc12)C(C)(C)C)C1CC1` [MM′], below 100 nM; for `CCN[C@@H](C)C(=O)N[C@H](C(=O)N1CCC[C@H]1Cc1cn(C)c2ncccc12)C(C)(C)C` [W], below 100 nM.
`CN[C@@H](C)C(=O)N[C@H](C(=O)N1CC[C@H](O)[C@H]1Cc1c[nH]c2ncccc12)C(C)C` [DD] registered a dissociation constant Kd below 100 nM.
Same read-out and setting: the value for `CCN[C@@H](C)C(=O)N[C@H](C(=O)N1CC[C@@H](O)[C@H]1Cc1c[nH]c2ccccc12)C(C)(C)C` [OO′] was below 100 nM; that for `CCc1ccc2c(c1)[C@@H](C[C@@H]1C[C@H](O)CN1C(=O)[C@@H](NC(=O)[C@H](C)NC)[C@@H](C)OC)CN2C(C)=O` [DDDD] was below 100 nM; that for AAAA was above 100 nM.
The compound `CCN[C@@H](C)C(=O)N[C@H](C(=O)N1CC[C@@H](O)[C@H]1Cc1c[nH]c2ccccc12)[C@@H](C)OC` [GG′] registered an equilibrium dissociation constant (Kd) below 100 nM.
Same read-out and setting: the value for `CC[C@H](NC)C(=O)N[C@H](C(=O)N1CC[C@H](O)[C@H]1Cc1c(Cl)[nH]c2cc(F)ccc12)[C@@H](C)OC` [BB′] was below 100 nM.
The same measure, in the same setting: for `CCN[C@@H](C)C(=O)N[C@H](C(=O)N1CC[C@H](O)[C@H]1Cc1c[nH]c2ncccc12)[C@@H](C)OC` [CC] the value was below 100 nM.

The next assay addresses T2, XIAP BIR-3 (Homo sapiens, UniProt P98170).
T2 construct: 40 nM of the BIR3 for 15 min at RT
Kind of assay: Fluorescence polarization binding to XIAP BIR-3 (competition with AbuRPF-K(5-Fam)-NH2). The settings on record: XIAP BIR-3 (default where cell does not indicate otherwise); reported as range class. The protocol:
as §1
For `CCNCC(=O)N[C@H](C(=O)N1CCC[C@H]1Cc1c[nH]c2ncccc12)C(C)(C)C` [N], the Kd was 1000 to 10000 nM.
`CCN[C@@H](C)C(=O)N[C@H](C(=O)N1CC[C@H](OC)[C@H]1Cc1c[nH]c2ncccc12)[C@@H](C)OC` [HH] yielded a Kd of 1000 to 10000 nM.
On the same count and under the same terms, the value for `CN[C@@H](C)C(=O)N[C@H](C(=O)N1CC[C@H](O)[C@H]1Cc1c[nH]c2cc(F)ccc12)[C@@H](C)OC` (relative stereo) [RR, trans-2R—[N-{1-[2-(6-Fluoro-1H-indol-3-ylmethyl)-3-hydroxy-pyrrolidine-1-carbonyl]-2-methoxy-propyl}]-2-methylamino-propionamide] was below 100 nM.
The same measure, in the same setting: for `CC[C@H](NC)C(=O)N[C@H](C(=O)N1CC[C@H](O)[C@H]1Cc1c[nH]c2cc(F)ccc12)[C@@H](C)OC` [TT] the value was below 100 nM; for `CN[C@@H](CO)C(=O)N[C@H](C(=O)N1CCC[C@H]1Cc1c[nH]c2ncccc12)C(C)(C)C` [O], below 100 nM; for `CN[C@@H](C)C(=O)N[C@H](C(=O)N1CC[C@@H](O)[C@H]1Cc1c(-c2ccc(F)cc2)[nH]c2ccccc12)C(C)C` [BBB], below 100 nM.
Still for that read-out and setting: for `CN[C@@H](C)C(=O)N[C@H](C(=O)N1CC[C@@H](O)[C@H]1Cc1c[nH]c2ccccc12)[C@@H](C)OC` [II′] the value was below 100 nM; for `CCN[C@@H](C)C(=O)N[C@H](C(=O)N1CC[C@H](C)[C@H]1Cc1c[nH]c2cc(F)ccc12)[C@@H](C)O` [QQ], above 10000 nM.
